These results are taken from US20240327428A1, “Inhibitors of human immunodeficiency virus replication, method of making and method of using thereof” (ASCLETIS BIOSCIENCE CO., LTD., priority 2023, published 2024).

For one data set, the system named is MT-4 cells. Description: Cellular toxicity in MT-4 cells (XTT staining). The data set is classed as cell-based. Particulars: 6 days incubation, read-out: TC50 (50% reduction in cell viability). The protocol:
(§1) The compounds were evaluated for inhibition of HIV-1IIIB infection and cellular toxicity in MT-4 cells.
(§2) The MT-4 cells and […] used in the HIV-1 inhibition assays were obtained from the AIDS Research and Reference Program (Rockville, MD) and propagated as recommended by the supplier.
(§3) Fifty microliters (50 μL) of MT-4 cells at a density of 1.0×10^4 cells/well in 10% complete RPMI-1640 (10% FBS supplemented with 1% L-glutamine and 1% Penicillin/Streptomycin) media were plated in a 96-well flat bottom plate. One-hundred microliters (100 μL) of each compound at 12 concentrations were added in triplicate followed by 50 μL of HIV-1IIIB at a pre-determined titer. The cultures were incubated for 6 days at 37° C./5% CO2. Following the incubation, the cells were stained with XTT for evaluation of compound efficacy and cellular toxicity, as described below.
(§4) Efficacy and toxicity values for the test materials were derived by measuring the reduction of the tetrazolium dye XTT (2,3-bis(2-methoxy-4-nitro-5-sulfophenyl)-5-[(phenylamino)carbonyl]-2H-tetrazolium hydroxide). XTT in metabolically active cells is metabolized by the mitochondrial enzyme NADPH oxidase to a soluble formazan product. XTT solution was prepared daily as a stock of 1 mg/mL in RPMI-1640 without additives. Phenazine methosulfate (PMS) solution was prepared at 0.15 mg/mL in DPBS and stored in the dark at −20° C. XTT/PMS stock was prepared immediately before use by adding 40 μL of PMS per mL of XTT solution. Fifty μL (50 μL) of XTT/PMS was added to each well of the plate and the plate incubated for 4 hours at 37° C. The 4-hour incubation has been empirically determined to be within the linear response range for XTT dye reduction with the indicated numbers of cells for each assay. The plates were sealed and inverted several times to mix the soluble formazan product and the plate was read at 450 nm (650 nm reference wavelength) with a Molecular Devices SpectraMax Plus 384 96 well plate format spectrophotometer.
(§5) Microsoft Excel 2010 in combination with XLfit4 was used to analyze and graph the data. EC50 (50% inhibition of virus replication), TC50 (50% reduction in cell viability) and a therapeutic index (TC50/EC50) are provided. Raw data for both antiviral activity and toxicity with a graphic representation of the data are provided in a printout summarizing the compound activity.

For a further data set, the system named is HIV-1IIIB. Kind of data set: Inhibition of HIV-1IIIB infection in MT-4 cells (XTT staining). The data set is classed as cell-based. Particulars: HIV-1IIIB in MT-4 cells; for EC50: 6 days incubation, XTT, read-out: EC50 (50% inhibition of virus replication). The protocol: as §1, §2, §3, §4, §5

With `Cn1nc(NS(C)(=O)=O)c2c(Cl)ccc(-n3c([C@H](Cc4cc(F)cc(F)c4)NC(=O)Cn4nc(C(F)(F)F)c5c4C(F)(F)[C@@H]4C[C@H]54)nc4ncsc4c3=O)c21` (atropisomer, axis not shown) [Compound 36], the CC50 in the data set with MT-4 cells was > 100 nM. Further, in the data set with HIV-1IIIB, the “Therapeutic Index (TC50/EC50)” value was >625.0 and the EC50 is 0.16 nM.

As to `CS(=O)(=O)Nc1nn(CC(F)(F)F)c2c(-n3c([C@H](Cc4cc(F)cc(F)c4)NC(=O)Cn4nc(C(F)(F)F)c5c4C(F)(F)[C@@H]4C[C@H]54)nc4ncsc4c3=O)ccc(Cl)c12` (atropisomer, axis not shown) [Compound 31], the CC50 with MT-4 cells is > 100 nM. In addition, in the data set with HIV-1IIIB, the “Therapeutic Index (TC50/EC50)” value is reported as >384.6 and the concentration giving a half-maximal response (EC50) was 0.26 nM.

Regarding `Cc1nsc2nc([C@H](Cc3cc(F)cc(F)c3)NC(=O)Cn3nc(C(F)(F)F)c4c3C(F)(F)[C@@H]3C[C@H]43)n(-c3ccc(Cl)c4c(NS(C)(=O)=O)nn(C)c34)c(=O)c12` (atropisomer, axis not shown) [Compound 45], the CC50 in the data set with MT-4 cells was > 100 nM. In addition, in the data set with HIV-1IIIB, the “Therapeutic Index (TC50/EC50)” value is listed as >212.8 and the EC50 is 0.47 nM.

Consider `Cn1nc(NS(C)(=O)=O)c2c(Cl)ccc(-n3c([C@H](Cc4cc(F)cc(F)c4)NC(=O)Cn4nc(C(F)(F)F)c5c4C(F)(F)C4CC54)nc4nc(S(C)(=O)=O)sc4c3=O)c21` (some centres unmarked) [Compound 30], for which, in the data set on MT-4 cells, the CC50 is > 100 nM. Further, in the data set on HIV-1IIIB, the concentration giving a half-maximal response (EC50) is > 100 nM.

Turning to `Cn1nc(NS(C)(=O)=O)c2c(Cl)ccc(-n3c([C@H](Cc4cc(F)cc(F)c4)NC(=O)Cn4nc(C(F)(F)F)c5c4C(F)(F)[C@@H]4C[C@H]54)nc4sccc4c3=O)c21` (atropisomer, axis not shown) [Compound 33], in the data set on MT-4 cells, the CC50 was > 100 nM. Further, in the data set on HIV-1IIIB, the “Therapeutic Index (TC50/EC50)” value is recorded as >294.1 and the half-maximal effective concentration (EC50) worked out at 0.34 nM.
